Assay results taken from PMC7125606 (Antiviral Research, 2009).
Read-outs that look alike come from different tables or passages of the source.

How the values were obtained:
in vitro = details: dog
[1] = test system: Influenza A/H3N2 (strain A/HK/7/87); experiment: microbe, parasite or virus in culture; assay type: cell-based; details: H3N2, MDCK, in Homo sapiens, 72 h
MDCK cells = details: minimal changes in cell morphology by microscopy
[2] = test system: Influenza A/H3N2 (strain X-31); experiment: microbe, parasite or virus in culture; assay type: cell-based; details: H3N2, MDCK, in Homo sapiens, 72 h
[3] = test system: Human embryonic lung (HEL) fibroblasts
[4] = test system: African green monkey kidney (Vero) cells
[5] = test system: human cervix epithelial (HeLa) cells
influenza virus = assay type: cell-based, human influenza virus; details: Ratio of MCC to average EC50, MDCK cells
[6] = read-out: Antiviral EC50, Influenza A/H3N2 (strain A/HK/7/87), CPE
[7] = read-out: Antiviral EC50, Influenza A/H3N2 (strain A/HK/7/87), MTS
[8] = read-out: Antiviral EC50, Influenza A/H3N2 (strain X-31), CPE
[9] = read-out: Antiviral EC50, Influenza A/H3N2 (strain X-31), MTS

Row | SMILES | CC50 (in vitro) | EC50 [1, 6] | EC50 [1, 7] | Cytotoxicity MCC (minimum cytotoxic concentration) (MDCK cells) | EC50 [2, 8] | EC50 [2, 9] | Cytotoxic concentration MCC, HEL [3] | Cytotoxic concentration MCC, Vero [4] | Cytotoxic concentration MCC, HeLa [5] | Selectivity index (influenza virus)
1 | NC12CC3CC(CC(C3)C1)C2 [Amantadine] | > 100 µM | 3.9 ± 4.1 µM | 3.2 ± 4 µM | >100 µM | 54 ± 33 µM | 45 ± 21 µM | – | – | – | –
2 | COC(=O)[C@H]1NC(=O)[C@H]2NC(=O)[C@H](NC(=O)[C@@H]3NC(=O)[C@H]4NC(=O)[C@H](NC(=O)[C@H](N)c5ccc(O)c(c5)Oc5cc4cc(O)c5C)[C@H](O)c4ccc(cc4)Oc4cc3cc(c4O)Oc3ccc(cc3)[C@H]2O)c2ccc(O)c(c2)-c2c(O)cc(O)cc21 [Compound 2, aglycoristocetin] | 44 ± 10 µM | 4.3 ± 2.9 µM | 3.2 ± 1.6 µM | 100 µM | 8.4 ± 2.4 µM | 10.7 ± 2.5 µM | ≥100 µM | 100 µM | ≥100 µM | 15
3 | CCC(CC)O[C@@H]1C=C(C(=O)O)C[C@H](N)[C@H]1NC(C)=O [Oseltamivir carboxylate] | > 100 µM | 0.26 ± 0.3 µM | 0.23 ± 0.23 µM | >100 µM | 0.027 ± 0.013 µM | 0.064 ± 0.078 µM | – | – | – | –
4 | NC(=O)c1ncn([C@@H]2O[C@H](CO)[C@@H](O)[C@H]2O)n1 [Ribavirin] | – | 8 ± 2.2 µM | 7.6 ± 3 µM | ≥100 µM | 9 ± 0.04 µM | 9.6 ± 2.2 µM | – | – | – | –
